From US20200216432A1, “SULFONAMIDE DERIVATIVES AS STAT3 INHIBITORS FOR THE TREATMENT OF PROLIFERATIVE DISEASES” (King's College London, priority 2017, published 2020)
pIC50: −log10 of the molar value. Square brackets hold non-standard residues; d marks the D form. Peptide text beside a SMILES is read from it. pY = N[C@@H](Cc1ccc(OP(=O)(O)O)cc1)C(=O)O

Assays:
[1] = biological target: unphosphorylated STAT3 monomer (uSTAT3) SH2 domain (Homo sapiens, UniProt P40763); assay: Fluorescence polarisation assay for the inhibition of STAT3 dimerisation; format: binding; settings: 350 nM uSTAT3, 10 nM FAM-pYLPQTV, 100 μM ligand; average of triplicate
From the text: Fluorescence Polarisation Assay for the Inhibition of STAT3 Dimerisation
The compounds were subjected to an in vitro fluorescent polarisation (FP)-based primary PPI binding screen to assess their ability to inhibit STAT3 dimerisation by interacting with the SH2 domain. In this FP assay, the unphosphorylated STAT3 monomer (uSTAT3) and a surrogate peptide FAM-pYLPQTV were used to form a ‘pseudo-dimer’. The assay is based on the concept that the compounds were expected to displace the surrogate peptide from the uSTAT3 resulting in a fluorescent read out.
Specifically, for the FP assay, a black (CORNING™) 96 well plate was thoroughly washed with distilled water and allowed to dry. A 100 nM FAM-pYLPQTV working solution was prepared from 10 μM FAM-pYLPQTV stock solution (in DMSO) using PBS pH 7.4 Buffer. 10 μl FAM-pYLPQTV was added to 350 nM uSTAT3 protein, the final concentration of protein in each well, in 90 μl PBS buffer pH 7.4. The MP value of the surrogate dimer complex was measured using a fluorescent plate reader (Envision™, Perkin Elmer™, USA), which provided the base MP value. The inhibitor solution was then added to the well and the assay plate was placed on a shaker for 5 minutes. The MP value for each well was then measured again. A shift in fluorescent values was observed due to displacement of the fluorescently-labelled surrogate peptide by the inhibitors, and the average inhibition for each inhibitor could be calculated as described below:
Base MP value (X) for each well=MP value of Protein and Probe (350 nm STAT3+10 nM FAM-pYLPQTV)−MP value of free FAM-pYLPQTV
Inhibitor MP value (Y) for each well=MP value of Protein+Probe+Inhibitor (350 nm uSTAT3+10 nM FAM-pYLPQTV+2 μL Inhibitor)−MP value of free FAM-pYLPQTV with 2 μL DMSO
% inhibition by any ligand/peptide=(X−Y)/X*100
For comparison purpose, the % inhibition produced by 100 μM pYLKTKF was considered to be 100%, and the inhibition produced by different ligands was reported as relative to 100 μM pYLKTKF.
% Inhibition produced by 100 μM pYLKTKF=A
% Inhibition produced by 100 μM Ligand=B
Relative inhibition (%)=B/A*100
The experiment was carried out in triplicate, and average values were taken as the measure of PPI inhibition.

[2] = test system: MDA-MB-231 breast (STAT3-dependent) cancer cell line; assay: MTT cell viability assay, MDA-MB-231; format: cell-based, human; settings: for pIC50: Homo sapiens, MDA-MB-231, 48 h, MTT, 48 hours exposure (table title); for Selectivity ratio: STAT3-null A4 versus STAT3-dependent MDA-MB-231
From the text: (§1) MTT Cell viability assay with both MDA-MB-231 breast (STAT3-dependent) and A4 (STAT3-null) cancer cell lines.
(§2) After observing significant STAT3 dimerisation inhibitory activity in the preliminary FP assay, the target ligand and related fragments were progressed to an MTT cytotoxicity assay to evaluate in a STAT3-dependent tumour cell line (MDA MB 231, breast cancer) and a STAT3 null A4 cell line. It was anticipated that the compounds would show selective toxicity towards the STAT3-dependent MDA MB 231 cell line and would have lost activity in the STAT3 null A4 cell line if the mechanism of action was STAT3-mediated.
(§3) For each cell line, a total of 10,000 cells were seeded for 24 hours before addition of the inhibitors. The cells were grown in normal cell culture conditions at 37° C. under a 5% CO2 humidified atmosphere using an appropriate medium. The cell count was adjusted to 10^5 cells/ml, and 5,000-20,000 cells were added per well depending on the cell line. The cells were then incubated for 24 hours, and 1 μl aliquots of the inhibitors were added to the wells in triplicate. […] Absorbance was quantified by spectrophotometry at A=570 nm (Envision™ Plate Reader, PerkinElmer™, USA). IC50 values were calculated by a dose-response analysis using the Prism GraphPad Prism® software package.

[3] = test system: A4 (STAT3-null) cancer cell line; assay: MTT cell viability assay, A4; format: cell-based; settings: exposure (table title)
From the text: as §1, §2, §3

Chain of unphosphorylated STAT3 monomer (uSTAT3) SH2 domain (P40763 whole entry, the tested form may be a part): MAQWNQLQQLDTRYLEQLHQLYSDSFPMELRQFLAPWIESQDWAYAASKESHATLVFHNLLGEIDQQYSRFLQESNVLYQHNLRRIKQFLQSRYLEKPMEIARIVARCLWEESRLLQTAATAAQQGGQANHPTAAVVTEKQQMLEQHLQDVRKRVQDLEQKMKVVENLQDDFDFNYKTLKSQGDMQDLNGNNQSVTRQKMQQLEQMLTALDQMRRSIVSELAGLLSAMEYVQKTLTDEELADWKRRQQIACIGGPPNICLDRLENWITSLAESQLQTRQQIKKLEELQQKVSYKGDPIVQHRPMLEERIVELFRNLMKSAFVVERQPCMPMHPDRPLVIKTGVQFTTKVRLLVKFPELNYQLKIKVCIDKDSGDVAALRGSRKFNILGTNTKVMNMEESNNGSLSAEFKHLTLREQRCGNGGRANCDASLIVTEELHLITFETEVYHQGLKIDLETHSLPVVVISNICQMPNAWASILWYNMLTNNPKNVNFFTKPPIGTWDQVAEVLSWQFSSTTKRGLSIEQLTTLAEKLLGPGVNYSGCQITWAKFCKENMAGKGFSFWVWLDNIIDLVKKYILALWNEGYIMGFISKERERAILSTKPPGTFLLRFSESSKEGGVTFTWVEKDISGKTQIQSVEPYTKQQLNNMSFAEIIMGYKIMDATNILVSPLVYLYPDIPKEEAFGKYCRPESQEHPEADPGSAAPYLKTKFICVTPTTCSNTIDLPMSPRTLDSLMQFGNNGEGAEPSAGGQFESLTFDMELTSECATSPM

Row | Structure (SMILES) | inhibition at 100 µM [1] [%] | pIC50 [2] | pIC50 [3] | Selectivity ratio [2] | cytotoxicity in the MTT assay ([2]; highest concentration (100 μM) evaluated)
1 | COC(=O)c1ccc(N(C)S(=O)(=O)c2cc(C(=O)NCc3ccc(CN4CCCCC4)cc3)sc2-c2ccc(C(=O)N3CCN(C)CC3)cc2)cc1 [Compound 7, methyl 4-((N-methyl-2-(4-(4-methylpiperazine-1-carbonyl)phenyl)-5-((4-(piperidin-1-ylmethyl)benzyl)carbamoyl)thiophene)-3-sulfonamido)benzoate] | 40.6 | 5.19 | 4.19 | 10.01 | –
2 | COC(=O)c1ccc(N(C)S(=O)(=O)c2cc(C(=O)NCc3ccc(CN4CCCCC4)cc3)sc2-c2ccc(C#N)cc2)cc1 [Compound 8, methyl 4-((2-(4-cyanophenyl)-N-methyl-5-((4-(piperidin-1-ylmethyl)benzyl)carbamoyl)thiophene)-3-sulfonamido)benzoate] | 36.4 | 4.91 | 4.46 | 2.76 | –
3 | COC(=O)c1ccc(N(C)S(=O)(=O)c2cc(C(=O)Nc3ccc(OCCN4CCOCC4)cc3)sc2-c2ccc(N3CCOCC3)cc2)cc1 [Compound 9, methyl 4-((N-methyl-5-((4-(2-morpholinoethoxy)phenyl)carbamoyl)-2-(4-morpholinophenyl)thiophene)-3-sulfonamido)benzoate] | 54.1 | 5.54 | 4.05 | 31.21 | –
4 | COC(=O)c1ccc(N(C)S(=O)(=O)c2cc(C(=O)Nc3ccc(OCCN4CCOCC4)cc3)sc2-c2ccc(N3CCN(C)CC3)nc2)cc1 [Compound 11, methyl 4-((N-methyl-2-(6-(4-methylpiperazin-1-yl)pyridin-3-yl)-5-((4-(2-morpholinoethoxy)phenyl)carbamoyl)thiophene)-3-sulfonamido)benzoate] | 58.3 | 5.12 | 4.18 | 8.84 | –
5 | COC(=O)c1ccc(N(C)S(=O)(=O)c2cc(C(=O)Nc3ccc(OCCN4CCOCC4)cc3)sc2-c2ccc(C(=O)N3CCOCC3)cc2)cc1 [Compound 12, methyl 4-((N-methyl-2-(4-(morpholine-4-carbonyl)phenyl)-5-((4-(2-morpholinoethoxy)phenyl)carbamoyl)thiophene)-3-sulfonamido)benzoate] | 59.4 | 5.41 | 4.12 | 19.28 | –
6 | COC(=O)c1ccc(N(C)S(=O)(=O)c2cc(C(=O)Nc3ccc(OCCN4CCOCC4)cc3)sc2-c2ccnc(N3CCNCC3)c2)cc1 [Compound 14, methyl 4-((N-methyl-5-((4-(2-morpholinoethoxy)phenyl)carbamoyl)-2-(2-(piperazin-1-yl)pyridin-4-yl)thiophene)-3-sulfonamido)benzoate] | 33.3 | 4.84 | 4.11 | 5.40 | –
7 | COC(=O)c1ccc(N(C)S(=O)(=O)c2cc(C(=O)Nc3ccc(OCCN4CCOCC4)cc3)sc2-c2ccc(C(=O)N3CCN(C)CC3)cc2)cc1 [Compound 15, methyl 4-((N-methyl-2-(4-(4-methylpiperazine-1-carbonyl)phenyl)-5-((4-(2-morpholinoethoxy)phenyl)carbamoyl)thiophene)-3-sulfonamido)benzoate] | 40.6 | 5.00 | 4.07 | 8.45 | –
8 | COC(=O)c1ccc(N(C)S(=O)(=O)c2cc(C(=O)NCc3ccc(N4CCN(C)CC4)cc3)sc2-c2ccc(N3CCCCC3)cc2)cc1 [Compound 17, methyl 4-((N-methyl-5-((4-(4-methylpiperazin-1-yl)benzyl)carbamoyl)-2-(4-(piperidin-1-yl)phenyl)thiophene)-3-sulfonamido)benzoate] | 43.7 | 5.33 | 4.19 | 13.68 | –
9 | COC(=O)c1ccc(N(C)S(=O)(=O)c2cc(C(=O)Nc3ccc(N4CCCCC4)cc3)sc2-c2ccc(N3CCCCC3)cc2)cc1 [Compound 18, methyl 4-((N-methyl-2-(4-(piperidin-1-yl)phenyl)-5-((4-(piperidin-1-yl)phenyl)carbamoyl)thiophene)-3-sulfonamido)benzoate] | 45.8 | 5.46 | 4.34 | 12.94 | –
10 | COC(=O)c1ccc(N(C)S(=O)(=O)c2cc(C(=O)Nc3ccc4c(ccn4Cc4ccccc4)c3)sc2Br)cc1 [Compound 40, methyl 4-((5-((1-benzyl-1H-indo1-5-yl)carbamoyl)-2-bromo-N-methylthiophene)-3-sulfonamido)benzoate] | 47.1 | – | – | – | –
11 | CC(C)C[C@H](NC(=O)[C@@H](N)Cc1ccc(OP(=O)(O)O)cc1)C(=O)N[C@@H](CCCCN)C(=O)N[C@H](C(=O)N[C@@H](CCCCN)C(=O)N[C@@H](Cc1ccccc1)C(=O)O)[C@@H](C)O [pYLKTKF, reference compound] (H-[pY]LKTKF-OH) | 41.6 | – | – | – | did not show any cytotoxicity

Further compounds by rising pIC50 [2], results first:

Row | inhibition at 100 µM [1] [%] | pIC50 [2] | pIC50 [3] | Structure (SMILES) | Selectivity ratio [2] | cytotoxicity in the MTT assay ([2]; highest concentration (100 μM) evaluated)
12 | 59.4 | 5.57 | 4.12 | COC(=O)c1ccc(N(C)S(=O)(=O)c2cc(C(=O)NCc3ccc(CN4CCCCC4)cc3)sc2-c2ccc(N3CCOCC3)cc2)cc1 [Compound 1, methyl 4-((N-methyl-2-(4-morpholinophenyl)-5-((4-(piperidin-1-ylmethyl)benzyl)carbamoyl)thiophene)-3-sulfonamido)benzoate] | 28.13 | –
13 | 46.9 | 5.61 | 4.24 | COC(=O)c1ccc(N(C)S(=O)(=O)c2cc(C(=O)NCc3ccc(CN4CCCCC4)cc3)sc2-c2ccnc(N3CCN(C)CC3)c2)cc1 [Compound 5, methyl 4-((N-methyl-2-(2-(4-methylpiperazin-1-yl)pyridin-4-yl)-5-((4-(piperidin-1-ylmethyl)benzyl)carbamoyl)thiophene)-3-sulfonamido)benzoate] | 23.62 | –
14 | 51.2 | 5.67 | 4.07 | COC(=O)c1ccc(N(C)S(=O)(=O)c2cc(C(=O)NCc3ccc(CN4CCCCC4)cc3)sc2-c2ccc(N3CCCCC3)cc2)cc1 [Compound 2, methyl 4-((N-methyl-2-(4-(piperidin-1-yl)phenyl)-5-((4-(piperidin-1-ylmethyl)benzyl)carbamoyl)thiophene)-3-sulfonamido)benzoate] | 39.76 | –
15 | 56.2 | 5.73 | 4.13 | COC(=O)c1ccc(N(C)S(=O)(=O)c2cc(C(=O)Nc3ccc(OCCN4CCOCC4)cc3)sc2-c2ccnc(N3CCN(C)CC3)c2)cc1 [Compound 13, methyl 4-((N-methyl-2-(2-(4-methylpiperazin-1-yl)pyridin-4-yl)-5-((4-(2-morpholinoethoxy)phenyl)carbamoyl)thiophene)-3-sulfonamido)benzoate] | 40.01 | –
16 | 47.9 | 5.96 | 4.45 | COC(=O)c1ccc(N(C)S(=O)(=O)c2cc(C(=O)Nc3ccc(OCCN4CCOCC4)cc3)sc2-c2ccc(C#N)cc2)cc1 [Compound 16, methyl 4-((2-(4-cyanophenyl)-N-methyl-5-((4-(2-morpholinoethoxy)phenyl)carbamoyl)thiophene)-3-sulfonamido)benzoate] | 32.36 | –
